This is an account of results in paper doi:10.1101/2023.08.01.551199v1, “Activation of cannabinoid CB2 receptors by (−)-cannabichromene but not (+)-cannabichromene” (biorxiv, 2023).

Holding throughout (assay type): cell-based
Assay [1] addresses T1, human CB2 (Homo sapiens, UniProt P34972).
T1 construct: gene CNR2; stably expressed in AtT20 FlpIn cells
The experiment in a line: fluorescent membrane potential assay (MPA Blue), AtT20-CB2 cells. As to conditions: 37 °C, pH 7.4, 0.1% DMSO; no activation up to the highest concentration tested.

The target in assay [2] is T2, human TRPA1 (Homo sapiens, UniProt O75762).
T2 construct: tetracycline-induced expression in HEK293 FlpIn/T-REx cells
T2 sequence (O75762 whole entry): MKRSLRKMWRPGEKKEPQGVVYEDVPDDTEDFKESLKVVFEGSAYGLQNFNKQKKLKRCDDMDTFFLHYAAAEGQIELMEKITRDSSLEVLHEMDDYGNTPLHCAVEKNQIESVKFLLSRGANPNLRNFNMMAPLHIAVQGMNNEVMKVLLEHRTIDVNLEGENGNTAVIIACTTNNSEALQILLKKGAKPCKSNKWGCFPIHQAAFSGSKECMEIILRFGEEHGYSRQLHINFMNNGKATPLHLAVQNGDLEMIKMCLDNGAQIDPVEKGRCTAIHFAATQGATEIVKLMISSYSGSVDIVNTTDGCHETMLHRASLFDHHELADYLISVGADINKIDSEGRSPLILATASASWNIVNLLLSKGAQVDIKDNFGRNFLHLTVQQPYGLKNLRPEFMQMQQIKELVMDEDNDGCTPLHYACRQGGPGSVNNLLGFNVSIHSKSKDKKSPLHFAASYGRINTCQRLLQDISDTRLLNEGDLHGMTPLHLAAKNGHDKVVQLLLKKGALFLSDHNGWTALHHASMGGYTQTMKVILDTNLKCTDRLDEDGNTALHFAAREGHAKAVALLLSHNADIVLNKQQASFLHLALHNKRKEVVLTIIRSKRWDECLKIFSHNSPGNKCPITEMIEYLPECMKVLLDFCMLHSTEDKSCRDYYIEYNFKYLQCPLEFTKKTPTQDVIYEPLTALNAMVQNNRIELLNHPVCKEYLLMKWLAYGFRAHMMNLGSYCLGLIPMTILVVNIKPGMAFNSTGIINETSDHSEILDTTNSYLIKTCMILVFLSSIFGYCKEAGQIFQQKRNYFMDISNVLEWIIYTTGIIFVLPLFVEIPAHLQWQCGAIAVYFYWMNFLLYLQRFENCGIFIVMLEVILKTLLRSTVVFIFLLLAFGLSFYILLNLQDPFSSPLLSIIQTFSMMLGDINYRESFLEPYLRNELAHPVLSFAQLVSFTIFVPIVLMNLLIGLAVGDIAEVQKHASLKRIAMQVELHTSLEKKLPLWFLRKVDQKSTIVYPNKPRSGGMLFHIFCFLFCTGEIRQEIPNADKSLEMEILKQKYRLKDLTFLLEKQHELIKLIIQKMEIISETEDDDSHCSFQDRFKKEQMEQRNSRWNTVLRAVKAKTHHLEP
Kind of assay: fluorescent intracellular calcium assay (FLIPR Ca5), HEK293-TRPA1 cells. The settings on record: agonist; 37 °C, pH 7.4, 0.1% DMSO, 1.25 mM probenecid.

In assay [3] the target is T2, human TRPA1. Described as above. An excerpt:
fluorescent intracellular calcium assay (FLIPR Ca5), HEK293-TRPA1 cells on human TRPA1 | In HEK293-TRPA1 cells cinnamaldehyde produced an increase in Ca5 fluorescence

T1 sequence (P34972 whole entry): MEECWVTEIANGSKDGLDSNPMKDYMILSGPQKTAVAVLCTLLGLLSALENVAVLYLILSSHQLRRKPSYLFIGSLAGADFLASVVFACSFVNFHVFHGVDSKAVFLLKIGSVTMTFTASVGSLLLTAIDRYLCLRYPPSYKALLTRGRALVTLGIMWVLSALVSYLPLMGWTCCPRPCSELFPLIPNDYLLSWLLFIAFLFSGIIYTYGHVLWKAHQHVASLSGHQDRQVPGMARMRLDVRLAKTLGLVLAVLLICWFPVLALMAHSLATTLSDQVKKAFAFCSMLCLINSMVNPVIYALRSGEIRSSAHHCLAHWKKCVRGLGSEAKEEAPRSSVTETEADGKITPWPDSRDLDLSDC

Turning to `CCCCCc1cc(O)c2c(c1)OC(C)(CCC=C(C)C)C=C2` (single isomer, unassigned; (+)) [(+)-CBC], the EC50 in assay [1] is given as > 30 µM. Besides, the “increase in fluorescence at 30 μM” value in assay [2] turned out to be 159 ± 27%.

As to `O=CC=Cc1ccccc1` [cinnamaldehyde], in assay [3], the half-maximal effective concentration (EC50) was 11 µM.

As usually defined, the EC50 is the midpoint of the concentration-response curve.
